In PubChem BioAssay (NCI):
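Compound exposure: 48 hours, 5 concentrations, 96-well plates. GI50: concentration for 50% inhibition of growth. Definition used: TGI = concentration required for complete inhibition of growth.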

Tested on: MDA-MB-468 breast
Assay: NCI-60 cell line screen, 48 h

Compound | GI50 | TGI
Cc1nn(-c2ccccc2)c2nc3c(nc12)C1=NCCN1C(c1ccc(Cl)cc1)N3 (centres undefined) | 1.65 µM | 3.23 µM
C=CC[C@@H]1/C=C(\C)C[C@H](C)C[C@H](OC)[C@H]2O[C@@](O)(C(=O)C(=O)N3CCCC[C@H]3C(=O)O[C@H](/C(C)=C/C3CC[C@@H](O)[C@H](OC)C3)[C@H](C)[C@@H](O)CC1=O)[C@H](C)C[C@@H]2OC (some centres undefined) | 12.2 µM | 27.3 µM
S=C(c1ccc2c(c1)OCO2)N1CCN(c2cccc(Cl)c2)CC1 | 0.34 µM | > 36.8 µM
O=C1CCC(N2Cc3c(C#CCCCNC(=O)c4cc5c(o4)C(=O)c4ccccc4C5=O)cccc3C2=O)C(=O)N1 (centres undefined) | 2.13 µM | 6.25 µM
COc1ccc(OC)c(/C=C2\COc3ccc(O)c(O)c3C2=O)c1 | 1.66 µM | 5.25 µM
CC1(C)N=C(N)N=C(N)N1c1cccc(CCCCOc2ccccc2)c1 | 0.0775 µM | 4.08 µM
Cc1[nH]nc2ccc3nc(-c4ccc5[nH]ncc5c4)c4c(c3c12)CCCC4 | 1.02 µM | 4.38 µM
N#C/C(=C1C=C/C(=N\O)C(Cl)=C\1)c1ccccc1 | 0.92 µM | 17.5 µM
CCn1c(-c2nonc2N)nc2cncc(C(=O)NCCNC)c21 | 1.9 µM | 14.6 µM
C=C(C)[C@@H]1CC[C@]2(C(=O)O)CC[C@]3(C)[C@H](CC[C@@H]4[C@@]5(C)C/C(=C/c6ccc(OC)cc6)C(=O)C(C)(C)[C@@H]5CC[C@]43C)[C@@H]12 | 1.81 µM | 7 µM
COC1=C2C[C@@H](C)C[C@@H](OC)[C@@H](O)[C@H](C)/C=C(\C)[C@@H](OC(N)=O)[C@H](OC)/C=C\C=C(/C)C(=O)NC(=CC1=O)C2=O | 0.0153 µM | 0.577 µM
O=C(CN1C(=O)S/C(=C\C(Cl)=C\c2ccccc2)C1=O)NCCc1ccc(O)cc1 | 1.27 µM | 3.54 µM
COc1cc(NC(=O)CSc2nc3ccccc3c(=O)n2CCc2ccccc2)cc(OC)c1OC | 2.2 µM | 7.13 µM
COc1ccc(-c2nn(-c3cccc(NC(=O)c4cccc(C(F)(F)F)c4)c3)cc2-c2ccncc2)cc1Cl | 1.68 µM | 9.61 µM
N=c1n(Cc2ccccc2)c(N)cc(=O)n1Cc1ccccc1 | 4.82 µM | 21.2 µM
Cn1ccnc1C(=O)/C=C/c1ccc(CC(=O)Nc2ccc(F)cc2)cc1 | 1.72 µM | 5.8 µM
CC1OC(n2c3ccccc3c3c4c(c5c6ccccc6[nH]c5c32)C(=O)N(CCN2CCOCC2)C4=O)CC(O)C1O (centres undefined) | 1.57 µM | 4.57 µM
COc1nc(N)nc2c1ncn2[C@@H]1O[C@H](CO)[C@@H](O)[C@@H]1O | > 100 µM | > 100 µM
CCOC(=O)c1c(Cl)c2c(n1Cc1cccc(OC)c1)-c1oncc1CC2 | 0.652 µM | 5.87 µM
COc1cc(C2CC(c3ccccc3)=NN2C(C)=O)cc(OC)c1OC (centres undefined) | 3.34 µM | 37.1 µM
C/C(=C\CCc1ccsc1)CC/C=C(\C)CCCN1CCC(CO)CC1 | 1.48 µM | 3.29 µM

Compound | GI50 | TGI
Cc1cc2cc3cc(C)c(N)cc3[n+](C)c2cc1N | 0.243 µM | 1.3 µM
O=C(NCCNc1nccc(-c2c(-c3cccc(O)c3)nc3sccn23)n1)Nc1cccc(C(F)(F)F)c1 | 1.67 µM | 3.33 µM
COc1cccc(Cn2c(-c3nonc3NC(C)=O)nc3ccccc32)c1 | 1.45 µM | 6.36 µM
CCN(CC)CCCCNc1ncc2cc(-c3cc(OC)cc(OC)c3)c(NC(=O)NC(C)(C)C)nc2n1 | 8.81 µM | 21.7 µM
COc1ccc(-c2nc(N3CCOCC3)c3sc(CN(C)c4ncc(C(=O)NO)cn4)cc3n2)cn1 | < 0.0104 µM | 0.0968 µM
COc1ccc(CCN2CCC(Nc3nc4ccccc4n3Cc3ccc(F)cc3)CC2)cc1 | 1.15 µM | 2.44 µM
O=C1/C(=C/c2ccccc2F)CN(C(=O)C(Cl)Cl)C/C1=C\c1ccccc1F | 0.277 µM | 1.11 µM
O=S(=O)(CCNCc1ccc(-c2ccc3ncnc(Nc4ccc(OCc5cccc(F)c5)c(Cl)c4)c3c2)o1)c1ccccc1 | 0.217 µM | 7.79 µM
Clc1ccc(C2=NN[C@H](c3cn(-c4ccccc4)nc3-c3ccccc3)C2)cc1 | 4.22 µM | 18.2 µM
O=C1CC[C@H](c2ccc(O)c3c2C(=O)[C@@H]2O[C@@H]2C3=O)c2cccc(O)c21 | 1.61 µM | 4.27 µM
C#C[C@]1(O)CC[C@H]2[C@@H]3CC=C4c5sc(Nc6cccc(F)c6)nc5CC[C@]4(C)[C@H]3CC[C@@]21C | 1.24 µM | 2.91 µM
CC(C)n1c(=O)n(C)c2cnc3cc(F)c(-c4ccc(OCCCN5CCCCC5)nc4)cc3c21 | 4.98 µM | 26 µM
C/C(=C(\c1ccc(O)cc1)c1ccc(OCCN2CCCCCC2)cc1)c1ccc(Cl)cc1 | 1.13 µM | 4.51 µM
O=C(Cc1ccccc1)NC(c1ccc(Cl)cc1)c1c(O)ccc2ccccc12 (centres undefined) | 1.99 µM | 5.53 µM
CS(=O)(=O)c1ccc(Oc2cc(F)cc(C#N)c2)c2c1[C@H](O)C(F)(F)C2 | > 100 µM | > 100 µM
O=C(NCCNc1nccc(-c2c(-c3ccc(F)cc3)nc3sccn23)n1)c1ccccc1 | 4.48 µM | 44.5 µM
O=C(Nc1ccc(OCc2nnc(-c3ccccc3)o2)c(F)c1)Nc1ccc(Cl)c(C(F)(F)F)c1 | 1.9 µM | 6.93 µM
COc1ccc2cc(Cn3cc[n+](Cc4ccc5ccccc5c4)c3)ccc2c1 | 0.487 µM | 2.57 µM
Cc1cc(C)c2nc3nc(C)cc(C)c3c(N)c2c1 | 3.61 µM | 14.9 µM
CCN(CC)CCCC(Cc1ccccc1)Nc1c2ccc(Cl)cc2nc2ccc(OC)cc12 (centres undefined) | 1.7 µM | 3.67 µM
H-HIIKKIRTWYRKAWHVLGKV-NH2 | 6.38 µM | 39 µM
